{"source": "patent US20230302018A1", "about": "(priority 2022, published 2023)", "test_system": "Male Wistar rats exposed to nitrogen mustard (NM)", "conditions": "rat, in vivo"}
{"smiles": "CC[C@H]1[C@@H](O)[C@@H]2[C@H](CC[C@]3(C)[C@@H]([C@H](C)CCC(=O)O)CC[C@@H]23)[C@@]2(C)CC[C@@H](O)C[C@@H]12", "note": "[OCA, 6α-ethyl-chenodeoxycholic acid]", "values": [{"measurement": "reduction in total collagen (hydroxyproline in tissue) compared to NM alone", "result": 2, "unit": "fold"}]}
